pIC50: −log10 of the molar value.
System: PDC 899932-113-R3-J6 complex spheroid viability
Assay: Anticancer human tumor 899932-113-R3-J6-PDC patient-derived melanoma cell line growth inhibition [RAS]
Details: for pIC50: curve of first compound; for viability, T/C: stronger effect = lower value; active = viability on the fitted dose curve at most 10% of control; inactive = the rest
How it was run: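 Agents were tested in combination matrices in half-log decrements from a top concentration at or near clinical Cmax (10 microM if undetermined). Targets were multi-cell spheroids of tumour lines plus HUVEC and MSC stromal cells.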
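Throughout, for viability, T/C: spheroids exposed to agents for seven days before readout; 100% = DMSO vehicle control wells.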

CC1(C)CCC(Nc2ncc(C(F)(F)F)c(-c3c[nH]c4c(P(C)(C)=O)c(C#N)ccc34)n2)CN1 (stereo unspecified) + C#Cc1c(F)ccc2cc(O)cc(-c3ncc4c(N5CC6CCC(C5)N6)nc(OCC56CCCN5CC(F)C6)nc4c3F)c12
inactive: viability, T/C (second compound 0.0316 µM, first compound 0.000949 µM) 100% | viability, T/C (second compound 0.0316 µM, first compound 0.003 µM) 82.4% | viability, T/C (second compound 0.0316 µM, first compound 0.00949 µM) 57.3% | viability, T/C (second compound 0.0316 µM, first compound 0.03 µM) 45.7% | viability, T/C (second compound 0.0316 µM, first compound 0.0949 µM) 13.2% | viability, T/C (second compound 0.1 µM, first compound 0.000949 µM) 97.2% | viability, T/C (second compound 0.1 µM, first compound 0.003 µM) 79.1% | viability, T/C (second compound 0.1 µM, first compound 0.00949 µM) 56.9% | viability, T/C (second compound 0.1 µM, first compound 0.03 µM) 42.8% | viability, T/C (second compound 0.1 µM, first compound 0.0949 µM) 14.3% | viability, T/C (second compound 0.316 µM, first compound 0.000949 µM) 102% | viability, T/C (second compound 0.316 µM, first compound 0.003 µM) 84.9% | viability, T/C (second compound 0.316 µM, first compound 0.00949 µM) 53.5% | viability, T/C (second compound 0.316 µM, first compound 0.03 µM) 47.5% | viability, T/C (second compound 0.316 µM, first compound 0.0949 µM) 15.9% | viability, T/C (second compound 1 µM, first compound 0.000949 µM) 104% | viability, T/C (second compound 1 µM, first compound 0.003 µM) 79.4% | viability, T/C (second compound 1 µM, first compound 0.00949 µM) 58% | viability, T/C (second compound 1 µM, first compound 0.03 µM) 45.5% | viability, T/C (second compound 1 µM, first compound 0.0949 µM) 13.5% | viability, T/C (second compound 3.16 µM, first compound 0.000949 µM) 112% | viability, T/C (second compound 3.16 µM, first compound 0.003 µM) 84.9% | viability, T/C (second compound 3.16 µM, first compound 0.00949 µM) 64.6% | viability, T/C (second compound 3.16 µM, first compound 0.03 µM) 47.1% | viability, T/C (second compound 3.16 µM, first compound 0.0949 µM) 13.6% | viability, T/C (second compound 10 µM, first compound 0.000949 µM) 108% | viability, T/C (second compound 10 µM, first compound 0.003 µM) 87.6% | viability, T/C (second compound 10 µM, first compound 0.00949 µM) 55.1% | viability, T/C (second compound 10 µM, first compound 0.03 µM) 58.9% | viability, T/C (second compound 10 µM, first compound 0.0949 µM) 11.1%
7.72: pIC50 (second compound 3.16 µM)
7.79: pIC50 (second compound 0.0316 µM)
active: viability, T/C (second compound 0.0316 µM, first compound 0.3 µM) 9.56% | viability, T/C (second compound 0.1 µM, first compound 0.3 µM) 7.89% | viability, T/C (second compound 0.316 µM, first compound 0.3 µM) 11.3% | viability, T/C (second compound 1 µM, first compound 0.3 µM) 9.51% | viability, T/C (second compound 3.16 µM, first compound 0.3 µM) 8.79% | viability, T/C (second compound 10 µM, first compound 0.3 µM) 6.89%
7.82: pIC50 (second compound 0.1 µM)
7.80: pIC50 (second compound 1 µM)
7.78: pIC50 (second compound 0.316 µM)
7.68: pIC50 (second compound 10 µM)

Nc1ccn(C2OC(CO)C(O)C2(F)F)c(=O)n1 (stereo unspecified) + C=CC(=O)N1CCN(c2nc(OCC3CCCN3C)nc3c(F)c(-c4nc(N)cc(C)c4C(F)(F)F)c(Cl)cc23)C(C)C1
7.71: pIC50 (second compound 0.00316 µM) | pIC50 (second compound 0.01 µM)
7.72: pIC50 (second compound 0.316 µM)
7.67: pIC50 (second compound 0.0316 µM)
inactive: viability, T/C (second compound 0.00316 µM, first compound 0.00316 µM) 98.2% | viability, T/C (second compound 0.00316 µM, first compound 0.01 µM) 68.9% | viability, T/C (second compound 0.00316 µM, first compound 0.0316 µM) 37.3% | viability, T/C (second compound 0.00316 µM, first compound 0.1 µM) 20.8% | viability, T/C (second compound 0.00316 µM, first compound 0.316 µM) 23.6% | viability, T/C (second compound 0.00316 µM, first compound 1 µM) 25.7% | viability, T/C (second compound 0.01 µM, first compound 0.00316 µM) 97.5% | viability, T/C (second compound 0.01 µM, first compound 0.01 µM) 73.5% | viability, T/C (second compound 0.01 µM, first compound 0.0316 µM) 32.8% | viability, T/C (second compound 0.01 µM, first compound 0.1 µM) 20% | viability, T/C (second compound 0.01 µM, first compound 0.316 µM) 24.9% | viability, T/C (second compound 0.01 µM, first compound 1 µM) 22.6% | viability, T/C (second compound 0.0316 µM, first compound 0.00316 µM) 99.3% | viability, T/C (second compound 0.0316 µM, first compound 0.01 µM) 74.4% | viability, T/C (second compound 0.0316 µM, first compound 0.0316 µM) 38.5% | viability, T/C (second compound 0.0316 µM, first compound 0.1 µM) 18.3% | viability, T/C (second compound 0.0316 µM, first compound 0.316 µM) 20.9% | viability, T/C (second compound 0.0316 µM, first compound 1 µM) 24% | viability, T/C (second compound 0.1 µM, first compound 0.00316 µM) 106% | viability, T/C (second compound 0.1 µM, first compound 0.01 µM) 86% | viability, T/C (second compound 0.1 µM, first compound 0.0316 µM) 34% | viability, T/C (second compound 0.1 µM, first compound 0.1 µM) 23.8% | viability, T/C (second compound 0.1 µM, first compound 0.316 µM) 21.7% | viability, T/C (second compound 0.1 µM, first compound 1 µM) 23.2% | viability, T/C (second compound 0.316 µM, first compound 0.00316 µM) 98.9% | viability, T/C (second compound 0.316 µM, first compound 0.01 µM) 73% | viability, T/C (second compound 0.316 µM, first compound 0.0316 µM) 32.4% | viability, T/C (second compound 0.316 µM, first compound 0.1 µM) 22.6% | viability, T/C (second compound 0.316 µM, first compound 0.316 µM) 24.1% | viability, T/C (second compound 0.316 µM, first compound 1 µM) 26.3% | viability, T/C (second compound 1 µM, first compound 0.00316 µM) 97.1% | viability, T/C (second compound 1 µM, first compound 0.01 µM) 64.2% | viability, T/C (second compound 1 µM, first compound 0.0316 µM) 35.5% | viability, T/C (second compound 1 µM, first compound 0.1 µM) 21.9% | viability, T/C (second compound 1 µM, first compound 0.316 µM) 17.9% | viability, T/C (second compound 1 µM, first compound 1 µM) 24.3%
7.65: pIC50 (second compound 0.1 µM)
7.76: pIC50 (second compound 1 µM)

Cc1nc(N2CCC3(CC2)COC(C)C3N)c(CO)nc1Sc1ccnc(N)c1Cl (stereo unspecified) + CCn1c(-c2cccnc2C(C)OC)c2c3cc(ccc31)N1CCOC(CC(NC(=O)C(C(C)C)N(C)C(=O)C3(F)CCN(C(=O)C#CC(C)(C)N(C)C)CC3)C(=O)N3CCCC(N3)C(=O)OCC(C)(C)C2)C1
inactive: viability, T/C (second compound 0.000949 µM, first compound 0.0316 µM) 109% | viability, T/C (second compound 0.000949 µM, first compound 0.1 µM) 102% | viability, T/C (second compound 0.000949 µM, first compound 0.316 µM) 108% | viability, T/C (second compound 0.000949 µM, first compound 1 µM) 113% | viability, T/C (second compound 0.000949 µM, first compound 3.16 µM) 112% | viability, T/C (second compound 0.000949 µM, first compound 10 µM) 118% | viability, T/C (second compound 0.003 µM, first compound 0.0316 µM) 102% | viability, T/C (second compound 0.003 µM, first compound 0.1 µM) 96.8% | viability, T/C (second compound 0.003 µM, first compound 0.316 µM) 107% | viability, T/C (second compound 0.003 µM, first compound 1 µM) 116% | viability, T/C (second compound 0.003 µM, first compound 3.16 µM) 109% | viability, T/C (second compound 0.003 µM, first compound 10 µM) 110% | viability, T/C (second compound 0.00949 µM, first compound 0.0316 µM) 93.2% | viability, T/C (second compound 0.00949 µM, first compound 0.1 µM) 95.5% | viability, T/C (second compound 0.00949 µM, first compound 0.316 µM) 112% | viability, T/C (second compound 0.00949 µM, first compound 1 µM) 121% | viability, T/C (second compound 0.00949 µM, first compound 3.16 µM) 114% | viability, T/C (second compound 0.00949 µM, first compound 10 µM) 110% | viability, T/C (second compound 0.03 µM, first compound 0.0316 µM) 91.7% | viability, T/C (second compound 0.03 µM, first compound 0.1 µM) 89.3% | viability, T/C (second compound 0.03 µM, first compound 0.316 µM) 108% | viability, T/C (second compound 0.03 µM, first compound 1 µM) 110% | viability, T/C (second compound 0.03 µM, first compound 3.16 µM) 108% | viability, T/C (second compound 0.03 µM, first compound 10 µM) 106% | viability, T/C (second compound 0.0949 µM, first compound 0.0316 µM) 91.2% | viability, T/C (second compound 0.0949 µM, first compound 0.1 µM) 85.8% | viability, T/C (second compound 0.0949 µM, first compound 0.316 µM) 103% | viability, T/C (second compound 0.0949 µM, first compound 1 µM) 94.2% | viability, T/C (second compound 0.0949 µM, first compound 3.16 µM) 105% | viability, T/C (second compound 0.0949 µM, first compound 10 µM) 107% | viability, T/C (second compound 0.3 µM, first compound 0.0316 µM) 82.5% | viability, T/C (second compound 0.3 µM, first compound 0.1 µM) 80.9% | viability, T/C (second compound 0.3 µM, first compound 0.316 µM) 95.6% | viability, T/C (second compound 0.3 µM, first compound 1 µM) 81.6% | viability, T/C (second compound 0.3 µM, first compound 3.16 µM) 94.3% | viability, T/C (second compound 0.3 µM, first compound 10 µM) 90.7%
< 5.00: pIC50 (second compound 0.000949 µM) | pIC50 (second compound 0.003 µM) | pIC50 (second compound 0.00949 µM) | pIC50 (second compound 0.03 µM) | pIC50 (second compound 0.0949 µM) | pIC50 (second compound 0.3 µM)

— PubChem BioAssay AID2060895 (Molecular Pharmacology Branch, DTP, NCI, 2025)
